Source: patent US8765695B2, “Use of ginsenoside RG1, its metabolites ginsenoside RH1 and/or PPT” (priority 2007, dated 2014)
Marks after values point to notes of the source that are not given here.

Assays:
T, FSH and LH in serum = assay: Hormones (T, FSH, LH) content in serum of mice, gossypol model, radioimmune assay; assay type: in vivo
Experimental: The test was conducted by radioimmune assay, with the use of a kit as purchased from China North Institute of Biological Technology.

PDE5 = PDE5 (Homo sapiens, UniProt O76074); assay: Inhibition effect on PDE5 (cGMP degradation, radioimmune autograph technique); assay type: biochemical
NO in testis tissue = assay: NO content in testis tissue of mice, gossypol model (NO kit); assay type: in vivo
Source text: There was no difference between low-dose group and high-dose group. […] The values were expressed as mean value±SD. **P<0.01 vs. model group, n=10.

[1] = tested on: sperms of cold stress mice; assay: Quality of sperms in mice in cold stress model by CASA; assay type: in vivo, Kunming mice; conditions: 14 days
Experimental: In the test, Kunming mice were used to establish a stress model. The mice were placed in an environment of 4° C. for 8 hours every day, each being kept in a single cage, with fasting and without water, for 14 days, to thereby establish a cold stress model. Ginsenoside Rg1 was administered at two different doses, i.e., 5 mg/kg and 10 mg/kg. Every day, the mice orally took the drug 1 hour before exposure in the cold environment.

corpus cavernosum = assay: NO release and cGMP content in corpus cavernosum of Newland white rabbit; assay type: in vivo
Experimental: 1.2.1 Influence of Ginsenoside Rg1 on No Release and cGMP Content in Corpus Cavernosum of Newland White Rabbit, as Shown in Table 4
Ginsenoside Rg1 (10 mg/kg) could markedly increase cGMP content in corpus cavernosum as compared with the control group. *P<0.05 vs the control group.

sperms of senile mice = assay: Quality of sperms in senile mice by CASA; assay type: in vivo, Kunming mice; conditions: senile mice aged 12 months, 5 mg/kg oral once every day, two weeks
Experimental: In the test, Kunming mice aged 12 months were used. Ginsenoside Rg1 was orally administered at a dose of 5 mg/kg, once every day, for two weeks.
However, the two groups had no difference in terms of the percentage of motility sperms and the percentage of A+B grade. […] The values were expressed as mean value±SD. **P<0.01 vs. the group of senile mice, n=4.

[2] = tested on: sperms in tail of epididymis; assay: Gossypol aspermatogenesis model: quality of sperms from tail of epididymis by CASA; assay type: in vivo,  male mice; conditions: 14th day
healthy men aged 30-50 = assay: Improving sexual function of men, study in volunteers; assay type: in vivo, human; conditions: 100-200 mg/d
Source text: The effect of ginsenoside Rg1 on improving sexual function of men had been studied in a few of volunteers (healthy men aged 30-50).

male mice = assay: Test of sexual ethology: bestriding time and mating frequency of male mice with estral female mice; assay type: in vivo, Kunming mice
Experimental: Kunming male mice (age 10 weeks, weight body 32-36 g), Kunming female mice (age 10 weeks, weight body 30-34 g), as purchased from Laboratory Animal Center of Chinese Academy of Medical Sciences (with the number of certificate SCXK (Jing) 2005-0004), were placed in a clean grade animal house alternately in light and in darkness (12 h:12 h), while taking water and food freely. The test started after the mice had adapted to the environment in the animal house for 5 days. During the period of adapting to the environment, male mice and female mice were isolated from each other.
In order to correctly reflect the change of male mice in sexual function, we prepared estral female mice by ectomizing their ovaries and inducing them by application of external hormone. After anesthetized with chloral hydrate, female mice were subjected to the steps of ectomizing bilateral ovaries by dorsal approach, ligating uterine tube residue end, and suturing skin, followed by recuperating for one week. The induction by application of hormone was conducted by reference to the literature (Masayoshi Nomura, et al, Physiology & Behavior 91 (2007) 223-228), comprising the steps of subcutaneously injecting estradiol benzoate (30 μg per mouse, is) at 48 h prior to use, and subcutaneously injecting progesterone (500 μg per mouse, is) at 4 h prior to use, to thereby obtain estral female mice.
Estral female mice were put in a ratio of 2:1 to male mice inside a mating box in which male mice were placed. They were trained for consecutive 5 days, 12 min each day. When the mating reaction of male mice became stable, the mice were grouped with the consideration that the bestriding time in each group of mice was substantially the same, while discarding the mice that had relatively weak reaction and no reaction.
In darkness, ethological test was carried out in the rearing cage of male mice. Estral female mice and male mice were kept in a ratio of 2:1 inside the same box for 12 min, during which period the bestriding time and mating frequency of the male mice were observed.
All of the values were expressed by using mean value and standard error (M±SEM), the analytic method used was one-way analysis of variance (ANOVA), and the statistic results were expressed by double star method, i.e., *<0.05, **<0.01.

testosterone in serum = assay: Content of testosterone in serum of male mice by radioimmune assay after 20 days of oral administration; assay type: in vivo
Experimental: After oral administration of ginsenoside Rg1 for 20 days, the content of testosterone in serum of male mice was tested by radioimmune assay.

SMILES: CC(C)=CCC[C@](C)(O[C@@H]1O[C@H](CO)[C@@H](O)[C@H](O)[C@H]1O)[C@H]1CC[C@]2(C)[C@@H]1[C@H](O)C[C@@H]1[C@@]3(C)CC[C@H](O)C(C)(C)[C@@H]3[C@@H](O[C@@H]3O[C@H](CO)[C@@H](O)[C@H](O)[C@H]3O)C[C@]12C [Rg1, ginsenoside Rg1]
- FSH in serum (T, FSH and LH in serum; 5 mg/kg): 5.7 ± 2.0 ng/mL
- LH in serum (T, FSH and LH in serum; 5 mg/kg): 2.9 ± 1.2 ng/mL
- T in serum (T, FSH and LH in serum; 5 mg/kg): 0.8 ± 0.3 ng/mL
- FSH in serum (T, FSH and LH in serum; 10 mg/kg): 4.3 ± 1.9 ng/mL
- LH in serum (T, FSH and LH in serum; 10 mg/kg): 2.1 ± 0.8 ng/mL
- T in serum (T, FSH and LH in serum; 10 mg/kg): 1.0 ± 0.5 ng/mL
- IC50 (PDE5): 4.34 nM
- inhibition at 0.0025 µM (PDE5; inhibitor 2.5 nmol/l, read-out: Inhibition rate on PDE5): 46.7%
- inhibition at 0.005 µM (PDE5; inhibitor 5.0 nmol/l, read-out: Inhibition rate on PDE5): 40%
- inhibition at 0.01 µM (PDE5; inhibitor 10.0 nmol/l, read-out: Inhibition rate on PDE5): 63.4%
- inhibition at 0.04 µM (PDE5; inhibitor 40.0 nmol/l, read-out: Inhibition rate on PDE5): 100%
- inhibition at 0.08 µM (PDE5; inhibitor 80.0 nmol/l, read-out: Inhibition rate on PDE5): 100%
- NO concentration in testis tissue (NO in testis tissue; 5 mg/kg): 16 ± 9 μmol/g protein
- NO concentration in testis tissue (NO in testis tissue; 10 mg/kg): 10 ± 7** μmol/g protein
- A + B grade ([1]; 5 mg/kg oral): 39.26 ± 8.96 %
- Motility sperm ([1]; 5 mg/kg oral): 54.47 ± 8.14 %
- Sperm count ([1]; 5 mg/kg oral): 438.70 ± 94.19 ×10^6
- A + B grade ([1]; 10 mg/kg oral): 32.89 ± 13.42%
- Motility sperm ([1]; 10 mg/kg oral): 44.97 ± 12.07%
- Sperm count ([1]; 10 mg/kg oral): 377.17 ± 42.93 ×10^6
- NO release in corpus cavernosum (corpus cavernosum; 2.5 mg/kg): 27.97 ± 6.90 μmol/g protein
- cGMP content in corpus cavernosum (corpus cavernosum; 2.5 mg/kg): 87.40 ± 42.86 pmol/g
- NO release in corpus cavernosum (corpus cavernosum; 5.0 mg/kg): 28.43 ± 6.04* μmol/g protein
- cGMP content in corpus cavernosum (corpus cavernosum; 5.0 mg/kg): 98.10 ± 48.40 pmol/g
- NO release in corpus cavernosum (corpus cavernosum; 10.0 mg/kg): 30.35 ± 6.70* μmol/g protein
- cGMP content in corpus cavernosum (corpus cavernosum; 10.0 mg/kg): 102.73 ± 50.80* pmol/g
- A + B grade (sperms of senile mice): 18.27 ± 8.37%
- Motility sperms (sperms of senile mice): 40 ± 6.56%
- Sperm count (sperms of senile mice): 133.23 ± 15.99** ×10^6
- Number of sperms ([2]; 5 mg/kg every day + gossypol 50 mg/kg every other day): 170 ± 36**^# 10^6 · ml−1
- Motility of sperms (A + B) ([2]; 5 mg/kg every day + gossypol): 28 ± 6%
- Viability rate of sperms ([2]; 5 mg/kg every day + gossypol): 50 ± 10 %
- Number of sperms ([2]; 10 mg/kg every day + gossypol 50 mg/kg every other day): 225 ± 36**^## 10^6 · ml−1
- Motility of sperms (A + B) ([2]; 10 mg/kg every day + gossypol): 45 ± 8 %
- Viability rate of sperms ([2]; 10 mg/kg every day + gossypol): 61 ± 9 %
- side effects in volunteers (healthy men aged 30-50): except for dry mouth, no significant side effects occurred
- bestriding time of mice (male mice; 5 mg/kg, 1st day): 3.1 ± 4.3 min
- mating frequency of mice (male mice; 5 mg/kg, 1st day, 12 min observation): 15.4 ± 6.4
- bestriding time of mice (male mice; 5 mg/kg, 4th day): 2.9 ± 3.4 min
- mating frequency of mice (male mice; 5 mg/kg, 4th day): 18.7 ± 4.2
- bestriding time of mice (male mice; 5 mg/kg, 8th day): 3.9 ± 3.1 min
- mating frequency of mice (male mice; 5 mg/kg, 8th day): 25.6 ± 5.2
- bestriding time of mice (male mice; 5 mg/kg, 12th day): 7.6 ± 4.1 min
- mating frequency of mice (male mice; 5 mg/kg, 12th day): 32.8 ± 6.6
- bestriding time of mice (male mice; 5 mg/kg, 14th day): 6.9 ± 3.5 min
- mating frequency of mice (male mice; 5 mg/kg, 14th day): 29.3 ± 7.0
- bestriding time of mice (male mice; 5 mg/kg, 16th day): 8.6 ± 2.8 min
- mating frequency of mice (male mice; 5 mg/kg, 16th day): 42.1 ± 10.1
- bestriding time of mice (male mice; 5 mg/kg, 18th day): 9.4 ± 3.7* min
- mating frequency of mice (male mice; 5 mg/kg, 18th day): 43.7 ± 8.7*
- bestriding time of mice (male mice; 5 mg/kg, 20th day): 9.5 ± 3.4* min
- mating frequency of mice (male mice; 5 mg/kg, 20th day): 43.3 ± 7.8*
- bestriding time of mice (male mice; 10 mg/kg, 1st day): 3.3 ± 2.3 min
- mating frequency of mice (male mice; 10 mg/kg, 1st day, 12 min observation): 13.8 ± 3.4
- bestriding time of mice (male mice; 10 mg/kg, 4th day): 3.5 ± 3.1 min
- mating frequency of mice (male mice; 10 mg/kg, 4th day): 20.1 ± 4.8
- bestriding time of mice (male mice; 10 mg/kg, 8th day): 4.2 ± 3.6 min
- mating frequency of mice (male mice; 10 mg/kg, 8th day): 28.3 ± 5.6
- bestriding time of mice (male mice; 10 mg/kg, 12th day): 8.6 ± 4.3 min
- mating frequency of mice (male mice; 10 mg/kg, 12th day): 25.3 ± 7.1
- bestriding time of mice (male mice; 10 mg/kg, 14th day): 7.9 ± 3.7 min
- mating frequency of mice (male mice; 10 mg/kg, 14th day): 33.3 ± 6.6
- bestriding time of mice (male mice; 10 mg/kg, 16th day): 9.2 ± 3.6 min
- mating frequency of mice (male mice; 10 mg/kg, 16th day): 37.9 ± 12.7
- bestriding time of mice (male mice; 10 mg/kg, 18th day): 9.3 ± 3.6* min
- mating frequency of mice (male mice; 10 mg/kg, 18th day): 45.1 ± 10.8*
- bestriding time of mice (male mice; 10 mg/kg, 20th day): 9.8 ± 3.8* min
- mating frequency of mice (male mice; 10 mg/kg, 20th day): 44.2 ± 9.4*
- content of testosterone in serum of mice (testosterone in serum; 2.5 mg/kg oral): 5.11 pmol/mL
- content of testosterone in serum of mice (testosterone in serum; 5.0 mg/kg oral): 5.18 pmol/mL
- content of testosterone in serum of mice (testosterone in serum; 10.0 mg/kg oral): 7.90* pmol · ml^−1
